Patent US5216175A, “Antimalarial analogs of artemisinin” (SRI International, priority 1990, dated 1993)
Converted amounts (≈) assume the structure as drawn. Read-outs that look alike come from different tables or passages of the source.

Key:
P. falciparum W-2 clone = assay: In vitro antimalarial activity, P. falciparum W-2 clone; format: cell-based; conditions: for IC50: Plasmodium falciparum
Source text: (§1) The analogs have been segregated arbitrarily here into those compounds in which the tetracyclic skeleton is intact (Table 2) and various ring-cleaved analogs (Table 3). The activities of the conventional malaria therapeutics chloroquine, mefloquine, and pyrimethamine is included for comparison.

P. falciparum D-6 clone = assay: In vitro antimalarial activity, P. falciparum D-6 clone; format: cell-based; conditions: for IC50: Plasmodium falciparum
Source text: as §1

[1] = Table 2, W-2 clone, drug-resistant strains of P. falciparum, read-out: IC50 W-2 clone
[2] = Table 2, W-2 clone, drawing 57 (artemisinin) = 100
[3] = Table 2, D-6 clone, drug-resistant strains of P. falciparum, read-out: IC50 D-6 clone
[4] = Table 2, D-6 clone, drawing 57 (artemisinin) = 100
[5] = Table 3, tricyclic analogs, W-2 clone, read-out: In vitro IC50 W-2 clone
[6] = Table 3, tricyclic analogs, W-2 clone
[7] = Table 3, tricyclic analogs, D-6 clone, read-out: In vitro IC50 D-6 clone
[8] = Table 3, tricyclic analogs, D-6 clone

Compound	IC50 (P. falciparum W-2 clone; [1]) [ng/mL]	Relative potency (W-2 clone) (P. falciparum W-2 clone; [2])	IC50 (P. falciparum D-6 clone; [3]) [ng/mL]	Relative potency (D-6 clone) (P. falciparum D-6 clone; [4])	IC50 (P. falciparum D-6 clone; [7]) [ng/mL]	Relative potency (D-6 clone) (P. falciparum D-6 clone; [8])	other results
C[C@@]12CC[C@H]3CCC[C@H]4CC(=O)O[C@H](O1)[C@@]34OO2 (relative stereo) [compound 4580, (±)-6,9-desmethylartemisinin]	3.92 (≈ 15.4 nM)	48	33.7 (≈ 133 nM)	12			
CCC1(CC)OO[C@]23CCCC[C@H]2[C@@H](C)C(=O)O[C@@H]3O1 (relative stereo) [compound 4583]					29.7 (≈ 105 nM)	15	IC50 (P. falciparum W-2 clone; [5]): 74.2 ng/mL (≈ 261 nM); Relative potency (W-2 clone) (P. falciparum W-2 clone; [6]): 3
O=C1C[C@@H]2CCC[C@@H]3C[C@H]4OO[C@]32[C@H](O1)O4 (relative stereo) [compound 4589, Octahydro-3,11-epoxy-11H-pyrano[4.3-j]-1,2-benzodioxan-9(3H) -one]	88.7 (≈ 392 nM)	2	129 (≈ 572 nM)	2			
CCCC[C@H]1C(=O)O[C@@H]2OC(C)(C)OO[C@@]23CCCC[C@@H]13 (relative stereo) [compound 4590, 7-Butyl-3,3-dimethyl-4aH,6H-hexahydro-1,2,4-trioxino[6.5-j] benzopyran-6-one]					13.9 (≈ 46.8 nM)	5	IC50 (P. falciparum W-2 clone; [5]): 11.8 ng/mL (≈ 39.5 nM); Relative potency (W-2 clone) (P. falciparum W-2 clone; [6]): 7
CC1(C)OO[C@]23CCCC[C@H]2CC(=O)O[C@@H]3O1 (relative stereo) [compound 4593, (±)-Hexahydro-3,3-dimethyl-4aH,6H-1,2,4-trioxino-[6.5-j][2] benzopyran-6-one]					189 (≈ 779 nM)	0.4	IC50 (P. falciparum W-2 clone; [5]): 178 ng/mL (≈ 735 nM); Relative potency (W-2 clone) (P. falciparum W-2 clone; [6]): 0.5
C[C@@H]1CC[C@H]2[C@@H](C)C(=O)O[C@@H]3O[C@@]4(C)CC[C@@H]1[C@]32OO4 [(+)-Artemisinin, reference compound]	2.11 (≈ 7.47 nM)	100	4.44 (≈ 15.7 nM)	100			
CCN(CC)CCCC(C)Nc1ccnc2cc(Cl)ccc12 (stereo not drawn) [Chloroquine, reference compound]		7		83			IC50 (P. falciparum W-2 clone; read-out: IC50 W-2 clone): 31.7 ng/mL (≈ 99.1 nM); IC50 (P. falciparum D-6 clone; read-out: IC50 D-6 clone): 5.33 ng/mL (≈ 16.7 nM)
OC(c1cc(C(F)(F)F)nc2c(C(F)(F)F)cccc12)C1CCCCN1 (stereo not drawn) [Mefloquine, reference compound]	2.4 (≈ 6.34 nM)	88	43.7 (≈ 116 nM)	10			
C[C@@H]1CC[C@H]2C(C)(C)C(=O)O[C@@H]3O[C@@]4(C)CC[C@@H]1[C@]32OO4 [compound 2800, (+)-Octahydro-3,12-epoxy-3,6,9,9-tetramethyl-12H-pyrano [4.3-j]-1,2-benzo dioxepin-10(3H)-one]	25.5 (≈ 86.1 nM)	0.63	20.9 (≈ 70.5 nM)	2.1			
C[C@@H]1CC[C@H]2CC(=O)N(Cc3ccccc3)[C@@H]3O[C@@]4(C)CC[C@@H]1[C@@]23OO4 [compound 2803]	0.07 (≈ 0.196 nM)	171	0.45 (≈ 1.26 nM)	149			
C[C@@H]1CC[C@H]2CC(=O)N(CC(=O)O)[C@@H]3O[C@@]4(C)CC[C@@H]1[C@@]23OO4 [compound 2804]			122 (≈ 376 nM)	5.5			
C[C@@H]1CC[C@H]2[C@@H](C)C(=O)O[C@@H]3OC(C)(C)OO[C@@]32C1 [compound 2816]					1.29 (≈ 4.77 nM)	108	IC50 (P. falciparum W-2 clone; [5]): 1.46 ng/mL (≈ 5.4 nM); Relative potency (W-2 clone) (P. falciparum W-2 clone; [6]): 75
CCCCCC[C@H]1C(=O)O[C@@H]2O[C@@]3(C)CC[C@H]4[C@H](C)CC[C@@H]1[C@@]24OO3 [compound 2817]	0.02 (≈ 0.0567 nM)	550	0.03 (≈ 0.0851 nM)	467			
C[C@@H]1CCC[C@@]23CO[C@@](C)(CC[C@@H]12)OO3 [compound 2823]					0.8 (≈ 3.77 nM)	37	
(-)-Hexahydro-3,3,10a,11β-tetramethyl-4aH,6H-1,2,4-trioxino-[6.5-j]benzopyran-6-one [compound 4592]						58	In vitro IC50 D-6 clone (P. falciparum D-6 clone; [8]): 1.28 ng/mL
